The results in this text go back to US20240140991A1, “ANTIBIOTIC NATURAL PRODUCT ANALOGUES” (THE QUEEN'S UNIVERSITY OF BELFAST, priority 2021, published 2024).

Values after ≈ are worked out from the molar mass of the structure shown. Starred links: 1 amine or outer side, 2 acyl side, 3 side chain; linkers in the order of their positions; H or OH if unused. Positions of bridges follow the written chain, without caps; N, C: chain ends. Non-standard residues stand in square brackets, D forms with d. Residues, ends and D or L forms follow the SMILES beside them. ξ: configuration not given here. *: point of attachment. X1 = C[C@@H](N=[N+]=[N-])[C@H](N[*:1])C(=O)[*:2]; Octanoyl(7-Me) = CC(C)CCCCCC(=O)*; Hexanoyl(4ξ-Me) = CCC(C)CCC(=O)*; dOrn = NCCC[C@@H](N)C(=O)O; Octanoyl = CCCCCCCC(=O)*; Orn = NCCC[C@H](N)C(=O)O; Dap = NC[C@H](N)C(=O)O; Alloc = C=CCOC(=O)* Where only a bound is given, the exact number is not on record here.

This assay has as its system Escherichia coli ATCC 25922. It is filed as cell-based. The note with it: ATCC 25922. How it is done:
Minimum inhibitory concentration (MIC) was determined by broth microdilution according to CLSI guidelines. Blood agar plates were inoculated with glycerol stocks of Escherichia coli ATCC 25922, E. coli ATCC 25922 MCR-1, E. coli MCR-1 (clinical isolate from Utrecht Medical Center, NL), E. coli EQAS MCR-2 (clinical isolate from Wageningen University and Research, NL), Kiebsielia pneumoniae ATCC 11228, K. pneumoniae ATCC 13883, K. pneumonia 2048 (clinical isolate from Vrije Universiteit Amsterdam Medical Center, NL), K. pneumonia JS-123 (clinical isolate from Utrecht Medical Center, NL), Acinetobacter baumannii ATCC 17961, A. baumannil ATCC 17978, A. baumannii 2018-006 (clinical isolate from Rijksinstituut voor Volksgezondheid en Milieu, NL), A. baumannii MDR (clinical isolate from Vrije Universiteit Amsterdam Medical Center, NL), Pseudomonas aeruginosa ATCC 27853, P. aeruginosa PAO1, P. aeruginosa NRZ-03961 (Reference strain from Das Nationale Referenzzentrum für gramnegative Krankenhauserreger, DE), P. aeruginosa M-120 (clinical isolate from Leiden University Medical Center, NL) and Staphylococcus aureus USA300 (clinical isolate from Texas Children's Hospitalm, USA). E. coli 25922 MCR1 was grown on LB agar supplemented with kanamycin. The inoculated agar plates were then incubated for 16 hours at 37° C. Individually grown colonies were subsequently used to inoculate 3 mL aliquots of TSB that were then incubated at 37° C. with shaking at 220 rpm. In parallel, the compounds to be assessed were serially diluted with Mueller-Hinton broth (MHB) in polypropylene 96-well plates (50 μL in each well). Once the OD600 of the bacterial suspensions reached 0.5, the bacteria were diluted with MHB (final concentration 2×10^5 CFU mL^−1) and added to the microplates containing the test compounds (50 μL to each well, final volume: 100 μL). The well-plates were sealed with an adhesive membrane and after 16 hours of incubation at 37° C. with shaking at 220 rpm the wells were visually inspected for bacterial growth. MIC values were defined as the lowest concentration of the compound that prevented visible growth of bacteria.

Turning to `CC[C@H](C)[C@@H]1NC(=O)[C@@H](NC(=O)[C@H](Cc2c[nH]c3ccccc23)NC(=O)[C@@H](CCCN)NC(=O)CNC(=O)[C@H](CCCN)NC(=O)[C@@H](CCCN)NC(=O)[C@@H](Cc2c[nH]c3ccccc23)NC(=O)[C@@H](Cc2ccc(O)cc2)NC(=O)[C@@H](CO)NC(=O)CCCCCC(C)C)[C@@H](C)OC(=O)CNC(=O)[C@@H](CO)NC(=O)CNC1=O` [Compound R4] ({Octanoyl(7-Me)}-[dS][dY][dW][dOrn][Orn]G[dOrn]WTIG[dS]G; ester 9-C; N-terminus assumed), the “Minimum inhibitory concentration (MIC)” value is 2 to 4 µg/mL.

`C[C@@H](N=[N+]=[N-])[C@H](N)C(=O)O` [(2S,3R)-2-amino-3-azidobutanoic acid]: the “Minimum inhibitory concentration (MIC)” value is 2 to 4 µg/mL.

Turning to `CCCCCCCC(=O)N[C@H](CO)C(=O)N[C@H](Cc1ccc(O)cc1)C(=O)N[C@H](Cc1c[nH]c2ccccc12)C(=O)N[C@H](CCCN)C(=O)N[C@@H](CCCN)C(=O)NCC(=O)N[C@H](CCCN)C(=O)N[C@@H](Cc1c[nH]c2ccccc12)C(=O)N[C@@H](CO)C(=O)N[C@H](C(=O)N[C@@H](CC(N)=O)C(=O)NCC(N)=O)[C@@H](C)CC` [ΔG13-Ser9-C8] (Octanoyl-[dS][dY][dW][dOrn][Orn]G[dOrn]WSING-NH2), the “Minimum inhibitory concentration (MIC)” value stood at 4 µg/mL (≈ 2.6 µM).

As for `CC[C@H](C)[C@@H]1NC(=O)[C@@H](NC(=O)[C@H](Cc2c[nH]c3ccccc23)NC(=O)[C@@H](CCCN)NC(=O)CNC(=O)[C@H](CCCN)NC(=O)[C@@H](CCCN)NC(=O)[C@@H](Cc2c[nH]c3ccccc23)NC(=O)[C@@H](Cc2ccc(O)cc2)NC(=O)[C@@H](CO)NC(=O)CCCCCC(C)C)[C@@H](C)OC(=O)CNC(=O)[C@H](CO)NC(=O)CNC1=O` [Compound R3] ({Octanoyl(7-Me)}-[dS][dY][dW][dOrn][Orn]G[dOrn]WTIGSG; ester 9-C; N-terminus assumed), the “Minimum inhibitory concentration (MIC)” value is 2 to 4 µg/mL.

As to `C=CCOC(=O)NC[C@H](NC(=O)[C@H](Cc1c[nH]c2ccccc12)NC(=O)[C@@H](CCCN)NC(=O)CNC(=O)[C@H](CCCN)NC(=O)[C@@H](CCCN)NC(=O)[C@@H](Cc1c[nH]c2ccccc12)NC(=O)[C@@H](Cc1ccc(O)cc1)NC(=O)[C@@H](CO)NC(=O)CCCCCC(C)C)C(=O)N[C@H](C(=O)N[C@@H](CC(N)=O)C(=O)NCC(=O)NCC(N)=O)[C@@H](C)CC` [Dap(Alloc)] ({Octanoyl(7-Me)}-[dS][dY][dW][dOrn][Orn]G[dOrn]W[Dap](Alloc)INGG-NH2), the “Minimum inhibitory concentration (MIC)” value was in the range of 1 to 2 µg/mL.

On to `CCC(C)CCC(=O)N[C@H](CO)C(=O)N[C@H](Cc1ccc(O)cc1)C(=O)N[C@H](Cc1c[nH]c2ccccc12)C(=O)N[C@H](CCCN)C(=O)N[C@@H](CCCN)C(=O)NCC(=O)N[C@H](CCCN)C(=O)N[C@@H](Cc1c[nH]c2ccccc12)C(=O)N[C@@H]1C(=O)N[C@@H]([C@@H](C)CC)C(=O)NCC(=O)N[C@H](CO)C(=O)N[C@H](C)C(=O)O[C@@H]1C` (stereo partly drawn) [Compound R8] ({Hexanoyl(4ξ-Me)}-[dS][dY][dW][dOrn][Orn]G[dOrn]WTIG[dS][dA]; ester 9-C; N-terminus assumed), for which the “Minimum inhibitory concentration (MIC)” value was in the range of 1 to 2 µg/mL.

For `CC[C@H](C)[C@H](NC(=O)[C@@H](NC(=O)[C@H](Cc1c[nH]c2ccccc12)NC(=O)[C@@H](CCCN)NC(=O)CNC(=O)[C@H](CCCN)NC(=O)[C@@H](CCCN)NC(=O)[C@@H](Cc1c[nH]c2ccccc12)NC(=O)[C@@H](Cc1ccc(O)cc1)NC(=O)[C@@H](CO)NC(=O)CCCCCC(C)C)[C@@H](C)O)C(=O)N[C@@H](CC(N)=O)C(=O)NCC(N)=O` [ΔG13, FA-sywoOGoWTING-CONH2] ({Octanoyl(7-Me)}-[dS][dY][dW][dOrn][Orn]G[dOrn]WTING-NH2), the “Minimum inhibitory concentration (MIC)” value was 2 µg/mL (≈ 1.28 µM).

Turning to `C=CCOC(=O)NC[C@H](NC(=O)[C@H](Cc1c[nH]c2ccccc12)NC(=O)[C@@H](CCCN)NC(=O)CNC(=O)[C@H](CCCN)NC(=O)[C@@H](CCCN)NC(=O)[C@@H](Cc1c[nH]c2ccccc12)NC(=O)[C@@H](Cc1ccc(O)cc1)NC(=O)[C@@H](CO)NC(=O)CCCCCCC)C(=O)N[C@H](C(=O)N[C@@H](CC(N)=O)C(N)=O)[C@@H](C)CC` [ΔG12-G13-Dap(Alloc)9-C8] (Octanoyl-[dS][dY][dW][dOrn][Orn]G[dOrn]W[Dap](Alloc)IN-NH2), the “Minimum inhibitory concentration (MIC)” value is 4 µg/mL (≈ 2.56 µM).

In the case of `CC[C@H](C)[C@H](NC(=O)[C@@H](NC(=O)[C@H](Cc1c[nH]c2ccccc12)NC(=O)[C@@H](CCCN)NC(=O)[C@H](C)NC(=O)[C@H](CCCN)NC(=O)[C@@H](CCCN)NC(=O)[C@@H](Cc1c[nH]c2ccccc12)NC(=O)[C@@H](Cc1ccc(O)cc1)NC(=O)[C@@H](CO)NC(=O)CCCCCC(C)C)[C@@H](C)O)C(=O)N[C@@H](CC(N)=O)C(=O)NCC(=O)NCC(N)=O` [Ala6 (Gly→Ala), FA-sywoOAoWTINGG-CONH2] ({Octanoyl(7-Me)}-[dS][dY][dW][dOrn][Orn]A[dOrn]WTINGG-NH2), the “Minimum inhibitory concentration (MIC)” value lay within 4 to 8 µg/mL.

Turning to `CC[C@H](C)[C@@H]1NC(=O)[C@@H](NC(=O)[C@H](Cc2c[nH]c3ccccc23)NC(=O)[C@@H](CCCN)NC(=O)CNC(=O)[C@H](CCCN)NC(=O)[C@@H](CCCN)NC(=O)[C@@H](Cc2c[nH]c3ccccc23)NC(=O)[C@@H](Cc2ccc(O)cc2)NC(=O)[C@@H](CO)NC(=O)CCCCCC(C)C)[C@@H](C)OC(=O)[C@H](C)NC(=O)[C@@H](CO)NC(=O)CNC1=O` [Compound R10] ({Octanoyl(7-Me)}-[dS][dY][dW][dOrn][Orn]G[dOrn]WTIG[dS]A; ester 9-C; N-terminus assumed), the “Minimum inhibitory concentration (MIC)” value was in the range of 1 to 2 µg/mL.

Consider `C=CCOC(=O)NC[C@H](NC(=O)[C@H](Cc1c[nH]c2ccccc12)NC(=O)[C@@H](CCCN)NC(=O)CNC(=O)[C@H](CCCN)NC(=O)[C@@H](CCCN)NC(=O)[C@@H](Cc1c[nH]c2ccccc12)NC(=O)[C@@H](Cc1ccc(O)cc1)NC(=O)[C@@H](CO)NC(=O)CCCCCC(C)C)C(=O)N[C@H](C(=O)N[C@@H](CC(N)=O)C(=O)NCC(=O)NCC(N)=O)[C@@H](C)CC` [Dap(Alloc)9-CONH2] ({Octanoyl(7-Me)}-[dS][dY][dW][dOrn][Orn]G[dOrn]W[Dap](Alloc)INGG-NH2), for which the “Minimum inhibitory concentration (MIC)” value turned out to be 2 µg/mL (≈ 1.18 µM).

Regarding `CC[C@H](C)[C@H](NC(=O)[C@H](CCC(N)=O)NC(=O)[C@H](Cc1c[nH]c2ccccc12)NC(=O)[C@@H](CCCN)NC(=O)CNC(=O)[C@H](CCCN)NC(=O)[C@@H](CCCN)NC(=O)[C@@H](Cc1c[nH]c2ccccc12)NC(=O)[C@@H](Cc1ccc(O)cc1)NC(=O)[C@@H](CO)NC(=O)CCCCCC(C)C)C(=O)N[C@@H](CC(N)=O)C(=O)NCC(=O)NCC(N)=O` [Gln9-CONH2] ({Octanoyl(7-Me)}-[dS][dY][dW][dOrn][Orn]G[dOrn]WQINGG-NH2), the “Minimum inhibitory concentration (MIC)” value turned out to be 4 µg/mL (≈ 2.43 µM).

With `CC[C@H](C)[C@H](NC(=O)[C@@H](NC(=O)[C@H](Cc1c[nH]c2ccccc12)NC(=O)[C@@H](CCCN)NC(=O)CNC(=O)[C@H](CCCN)NC(=O)[C@@H](CCCN)NC(=O)[C@@H](Cc1c[nH]c2ccccc12)NC(=O)[C@@H](Cc1ccc(O)cc1)NC(=O)[C@@H](CO)NC(=O)CCCCCC(C)C)[C@@H](C)O)C(=O)N[C@@H](CC(N)=O)C(=O)NCC(=O)NCC(N)=O` [Thr9-CONH2] ({Octanoyl(7-Me)}-[dS][dY][dW][dOrn][Orn]G[dOrn]WTINGG-NH2), the “Minimum inhibitory concentration (MIC)” value lay in the range of 2 to 4 µg/mL.

In the case of `CC[C@H](C)[C@H](NC(=O)[C@@H](NC(=O)[C@H](Cc1c[nH]c2ccccc12)NC(=O)[C@@H](C)NC(=O)CNC(=O)[C@H](CCCN)NC(=O)[C@@H](CCCN)NC(=O)[C@@H](Cc1c[nH]c2ccccc12)NC(=O)[C@@H](Cc1ccc(O)cc1)NC(=O)[C@@H](CO)NC(=O)CCCCCC(C)C)[C@@H](C)O)C(=O)N[C@@H](CC(N)=O)C(=O)NCC(=O)NCC(N)=O` [Ala7 (D-Orn→D-Ala), FA-sywoOGaWTINGG-CONH2] ({Octanoyl(7-Me)}-[dS][dY][dW][dOrn][Orn]G[dA]WTINGG-NH2), the “Minimum inhibitory concentration (MIC)” value is greater than 64 µg/mL.

On to `CC[C@H](C)[C@H](NC(=O)[C@@H](NC(=O)[C@H](Cc1c[nH]c2ccccc12)NC(=O)[C@@H](CCCN)NC(=O)CNC(=O)[C@H](CCCN)NC(=O)[C@@H](CCCN)NC(=O)[C@@H](Cc1c[nH]c2ccccc12)NC(=O)[C@@H](Cc1ccc(O)cc1)NC(=O)[C@@H](CO)NC(=O)CCCCCC(C)C)[C@@H](C)N=[N+]=[N-])C(=O)N[C@@H](CC(N)=O)C(=O)NCC(=O)NCC(N)=O` [MeDap(N3)9-CONH2] ({Octanoyl(7-Me)}-[dS][dY][dW][dOrn][Orn]G[dOrn]W[X1]INGG-NH2), for which the “Minimum inhibitory concentration (MIC)” value came out at 2 µg/mL (≈ 1.21 µM).
